Experimental data from article PMC3025038 (Organic & biomolecular chemistry, 2009).

Tests used:
[1] = mice; liver, spleen, kidney bone marrow, or brain tissue; cited from earlier work
KOP receptors [2] = target: T1, KOP receptors (Homo sapiens, UniProt P41145); assay: biochemical; assay type: biochemical; conditions: for Emax: read-out: KOP Emax
KOP receptors [3] = target: T1, KOP receptors; assay type: binding

T1 sequence (P41145 whole entry): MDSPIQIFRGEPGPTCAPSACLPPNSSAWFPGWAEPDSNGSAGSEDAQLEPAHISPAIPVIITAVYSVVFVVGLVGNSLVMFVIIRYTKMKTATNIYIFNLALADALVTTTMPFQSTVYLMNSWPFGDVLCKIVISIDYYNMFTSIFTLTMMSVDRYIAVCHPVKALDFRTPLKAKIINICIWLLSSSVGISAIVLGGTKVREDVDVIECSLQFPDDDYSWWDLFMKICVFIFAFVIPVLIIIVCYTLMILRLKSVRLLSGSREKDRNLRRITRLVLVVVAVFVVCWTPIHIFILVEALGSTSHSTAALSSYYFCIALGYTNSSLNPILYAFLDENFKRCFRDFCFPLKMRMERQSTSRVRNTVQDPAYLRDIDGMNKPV

COC(=O)[C@@H]1C[C@H](OC(C)=O)C(=O)[C@H]2[C@@]1(C)CC[C@H]1C(=O)O[C@H](c3ccoc3)C[C@]21C [Compound 1, salvinorin A]
histological differences versus control animals [1]: no histological differences

COC(=O)[C@@H]1C[C@H](OC(C)=O)C(=O)[C@H]2[C@@]1(C)CC[C@H]1C(=O)O[C@H](C(=O)N3CCCCC3)C[C@]21C [Compound 21, (2S,4aR,6aR,7R,9S,10aS,10bR)-methyl 9-acetoxy-6a,10b-dimethyl-4,10-dioxo-2-(piperidine-1-carbonyl)dodecahydro-1H-benzo[f]isochromene-7-carboxylate]
fold less active than 1 as agonists (KOP receptors [2]): approximately 100 fold | functional character at KOPs (in words) (KOP receptors [2]): selective partial agonists | Emax (KOP receptors [2]): 85 ± 13% | fold increase in affinity for KOP receptors (KOP receptors [3]): 9 fold

COC(=O)[C@@H]1C[C@H](OC(C)=O)C(=O)[C@H]2[C@@]1(C)CC[C@H]1C(=O)O[C@H](C(=O)N3CCSCC3)C[C@]21C [Compound 23, (2S,4aR,6aR,7R,9S,10aS,10bR)-methyl 9-acetoxy-6a,10b-dimethyl-4,10-dioxo-2-(thiomorpholine-4-carbonyl)dodecahydro-1H-benzo[f]isochromene-7-carboxylate]
fold less active than 1 as agonists (KOP receptors [2]): approximately 100 fold | functional character at KOPs (in words) (KOP receptors [2]): selective partial agonists | Emax (KOP receptors [2]): 57 ± 6%
